Tests used:
Assay type in all cases: in vivo
Phaedon cochleariae = Phaedon cochleariae spray test; details: foliar, 168 h, Chinese cabbage leaf disks, larvae, after 7 days
Description: Phaedon cochleariae—Spray Test
(§1) Solvent: 78.0 parts by weight of acetone • • 1.5 parts by weight of dimethylformamide
(§2) Emulsifier: alkylarylpolyglycol ether
(§3) To produce a suitable preparation of active compound, 1 part by weight of active compound is mixed with the stated amount of solvents and is diluted with water, containing an emulsifier concentration of 1000 ppm, to the desired concentration. Further test concentrations are prepared by dilution with emulsifier containing water.
Chinese cabbage (Brassica pekinensis) leaf disks are sprayed with a preparation of the active ingredient of the desired concentration. Once dry, the leaf disks are infested with mustard beetle larvae (Phaedon cochleariae).
After 7 days mortality in % is determined. 100% means all beetle larvae have been killed and 0% means none of the beetle larvae have been killed.

Boophilus microplus = Boophilus microplus injection test; details: 20 μg/animal injected; adult engorged female ticks; after 7 days
Description: Boophilus microplus—Injection Test
Solvent: dimethyl sulfoxide
To produce a suitable preparation of active compound, 10 mg of active compound are dissolved in 0.5 ml solvent, and the concentrate is diluted with solvent to the desired concentration.
Five adult engorged female ticks (Boophilus microplus) are injected with 1 μl compound solution into the abdomen. The ticks are transferred into replica plates and incubated in a climate chamber.
After 7 days egg deposition of fertile eggs is monitored. Eggs where fertility is not visible are stored in a climate chamber till hatching after about 42 days. An efficacy of 100% means all eggs are infertile; 0% means all eggs are fertile.

Meloidogyne incognita = Meloidogyne incognita test; details: 20 ppm; eggs and larvae, salad seeds in sand; after 14 days
Description: Meloidogyne incognita—Test
Solvent: 125.0 parts by weight of acetone
To produce a suitable preparation of active compound, 1 part by weight of active compound is mixed with the stated amount of solvent, and the concentrate is diluted with water to the desired concentration.
Vessels are filled with sand, a solution of the active ingredient, a suspension containing eggs and larvae of the southern root-knot nematode (Meloidogyne incognita) and salad seeds. The salad seeds germinate and the seedlings grow. Galls develop in the roots.
After 14 days the nematicidal activity is determined on the basis of the percentage of gall formation. 100% means no galls were found and 0% means the number of galls found on the roots of the treated plants was equal to that in untreated control plants.

Diabrotica balteata = Diabrotica balteata spray test; details: 160 μg/well; germinated wheat seeds, larvae; after 7 days
Description: Diabrotica Balteata—Spray Test
as §1, §2
as §3, with “solvent,” for “solvents”, “and the concentrate” for “and”
Soaked wheat seeds (Triticum aestivum) are placed in a multiple well plate filled with agar and some water and are incubated for 1 day to germinate (5 seeds per well). The germinated wheat seeds are sprayed with a test solution containing the desired concentration of the active ingredient. Afterwards each unit is infected with 10-20 larvae of the banded cucumber beetle (Diabrotica balteata).
After 7 days efficacy in % is determined. 100% means all the seedlings have grown up like in the untreated, uninfected control; 0% means none of the seedlings have grown.

Nezara viridula [1] = experiment: Nezara viridula spray test (solvent 52.5 acetone / 7 dimethylformamide); details: 96 h, barley plants, larvae, after 4 days
Description: (§4) Nezara viridula—Spray Test
Solvent: 52.5 parts by weight of acetone • 7 parts by weight of dimethylformamide
Emulsifier: alkylaryl polyglycolether
To produce a suitable preparation of active compound, 1 part by weight of active compound is mixed with the stated amount of solvent, and the concentrate is diluted with water, containing an emulsifier concentration of 1000 ppm, to the desired concentration. Ammonium salt and/or penetration enhancer in a dosage of 1000 ppm are added to the desired concentration if necessary.
(§5) Barley plants (Hordeum vulgare) infested with larvae of the southern green stink bug (Nezara viridula) are sprayed with a test solution containing the desired concentration of the active ingredient.
(§6) After 4 days mortality in % is determined. 100% means all the stink bugs have been killed; 0% means none of the stink bugs have been killed.

Nezara viridula [2] = experiment: Nezara viridula spray test (solvent 78.0 acetone / 1.5 dimethylformamide); details: 96 h, barley plants, larvae, after 4 days
Description: as §4, §1, §2
as §3, with “solvent,” for “solvents”, “and the concentrate” for “and”
as §5, §6

Ctenocephalides felis = Ctenocephalides felis in-vitro contact test, adult cat flea; details: 5 μg/cm^2 (=500 g/ha), after 48 hours
Description: Ctenocephalides felis—In-Vitro Contact Tests Adult Cat Flea
9 mg compound is solved in 1 ml acetone and diluted with acetone to the desired concentration. 250 μl of the test solution is filled in 25 ml glass test tubes and homogeneously distributed on the inner walls by rotation and tilting on a shaking device (2 h at 30 rpm). With a compound concentration of 900 ppm, an inner surface of 44.7 cm^2 and a homogeneous distribution, a dose of 5 μg/cm^2 is achieved.
After the solvent has evaporated, each test tube is filled with 5-10 adult cat fleas (Ctenocephalides felis), closed with a perforated lid and incubated in a lying position at room temperature and relative humidity. After 48 hours efficacy is determined. The fleas are patted on the ground of the tubes and are incubated on a heating plate at 45-50° C. for at most 5 minutes. Immotile or uncoordinated moving fleas, which are not able to escape the heat by climbing upwards, are marked as dead or moribund.
An efficacy of 100% means all fleas are dead or moribund; 0% means no fleas are dead or moribund.

Tetranychus urticae = Tetranychus urticae spray test OP-resistant; details: foliar, 144 h, French bean leaf disks, all instars, after 6 days
Description: Tetranychus urticae—Spray Test OP-Resistant
Solvent: 78.0 parts by weight acetone • 1.5 parts by weight dimethylformamide
as §2, §3
French bean (Phaseolus vulgaris) leaf disks infected with all instars of the two spotted spidermite (Tetranychus urticae), are sprayed with a preparation of the active ingredient of the desired concentration.
After 6 days mortality in % is determined. 100% means all spider mites have been killed and 0% means none of the spider mites have been killed.

| Compound | efficacy (infertile eggs) (Boophilus microplus) | nematicidal activity (gall formation) (Meloidogyne incognita) | efficacy (seedling growth) (Diabrotica balteata) | other results |
| --- | --- | --- | --- | --- |
| N#Cc1cccc(C#N)c1-c1nsc(NC(=O)c2cccnc2C(F)(F)F)n1 [Compound I-1-78, N-[3-(2,6-Dicyanophenyl)-1,2,4-thiadiazol-5-yl]-2-(trifluoromethyl)nicotinamide] | – | – | – | mortality at 500 g/ha (Phaedon cochleariae): ≥ 80% |
| O=C(Nc1nc(-c2c(F)cccc2F)ns1)c1ccccc1Cl [Compound I-1-3] | 100% | 90% | – | – |
| O=C(Nc1nc(-c2c(F)cccc2F)ns1)c1cccnc1Cl [Compound I-1-29, 2-Chloro-N-[3-(2,6-difluorophenyl)-1,2,4-thiadiazol-5-yl]nicotinamide] | – | 100% | 80% | mortality at 500 g/ha (Nezara viridula [1]): ≥ 90%; mortality at 500 g/ha (Nezara viridula [2]): ≥ 90% |
| O=C(Nc1nc(-c2c(F)cccc2F)ns1)C1=C(C(F)F)OCCS1 [Compound I-1-39] | – | 70% | – | – |
| O=C(Nc1nc(-c2c(F)cccc2F)ns1)c1ncccc1C(F)(F)F [Compound I-1-13] | – | 90% | – | – |
| CCc1ncccc1C(=O)Nc1nc(-c2ccccc2Cl)ns1 [Compound I-1-48] | – | 90% | – | – |
| O=C(Nc1nc(-c2ccc(C(F)(F)F)cc2C(F)(F)F)ns1)c1cccnc1C(F)(F)F [Compound I-1-66, N-{3-[2,4-Bis(trifluoromethyl)phenyl]-1,2,4-thiadiazol-5-yl}-2-(trifluoromethyl)nicotinamide] | – | – | – | mortality at 500 g/ha (Nezara viridula [1]): ≥ 90% |
| O=C(Nc1nc(-c2c(F)cccc2F)ns1)c1cccnc1C(F)F [Compound I-1-14] | 100% | 100% | – | – |
| O=C(Nc1nc(-c2c(F)cccc2F)ns1)c1ccccc1C(F)F [Compound I-1-9] | 100% | 70% | – | – |
| Cc1ccccc1-c1nsc(NC(=O)c2cccnc2C(F)(F)F)n1 [Compound I-1-53] | – | – | 80% | – |
| O=C(Nc1nc(-c2c(F)cccc2F)ns1)c1cccc(Cl)c1C(F)(F)F [Compound I-1-77] | – | – | 80% | – |
| O=C(Nc1nc(-c2ccccc2Cl)ns1)c1ccccc1Cl [Compound I-1-22] | 100% | – | – | – |
| O=C(Nc1nc(-c2c(F)cccc2F)ns1)c1ccccc1I [Compound I-1-8] | 100% | – | – | – |
| O=C(Nc1nc(-c2c(F)cccc2F)ns1)c1nccnc1C(F)(F)F [Compound I-1-7] | 100% | – | 100% | efficacy (fleas dead or moribund) (Ctenocephalides felis): 100% |
| O=C(Nc1nc(-c2c(F)cccc2F)ns1)c1cccnc1C(F)(F)F.[Na+] [Compound I-1-30, Sodium [3-(2,6-difluorophenyl)-1,2,4-thiadiazol-5-yl]{[2-(trifluoromethyl)pyridin-3-yl]carbonyl}azanide] | 100% | 100% | – | mortality at 500 g/ha (Nezara viridula [1]): ≥ 90%; efficacy (fleas dead or moribund) (Ctenocephalides felis): 90%; mortality at 500 g/ha (Tetranychus urticae): ≥ 70%; mortality at 500 g/ha (Phaedon cochleariae): ≥ 80% |
| O=C(Nc1nc(-c2ccccc2Cl)ns1)c1ccccc1Br [Compound I-1-21, 2-Bromo-N-[3-(2-chlorophenyl)-1,2,4-thiadiazol-5-yl]benzamide] | – | – | – | mortality at 500 g/ha (Nezara viridula [2]): ≥ 90%; mortality at 500 g/ha (Phaedon cochleariae): ≥ 80% |
| CCN(C(=O)c1cccnc1C(F)(F)F)c1nc(-c2c(F)cccc2F)ns1 [Compound I-1-34, N-[3-(2,6-Difluorophenyl)-1,2,4-thiadiazol-5-yl]-N-ethyl-2-(trifluoromethyl)nicotinamide] | – | – | – | mortality at 500 g/ha (Tetranychus urticae): ≥ 70% |
| O=C(Nc1nc(-c2cccnc2Cl)ns1)c1ccccc1C(F)(F)F [Compound I-3-1, N-[3-(2-Chloropyridin-3-yl)-1,2,4-thiadiazol-5-yl]-2-(trifluoromethyl)benzamide] | – | – | – | mortality at 500 g/ha (Nezara viridula [1]): ≥ 90%; mortality at 500 g/ha (Phaedon cochleariae): ≥ 80% |
| CCc1ncccc1C(=O)Nc1nc(-c2c(F)cccc2F)ns1 [Compound I-1-36, N-[3-(2,6-Difluorophenyl)-1,2,4-thiadiazol-5-yl]-2-ethylnicotinamide] | – | 100% | – | mortality at 500 g/ha (Phaedon cochleariae): ≥ 80% |
| O=C(Nc1nc(-c2ccccc2Cl)ns1)c1cccnc1C(F)(F)F [Compound I-1-43, N-[3-(2-chlorophenyl)-1,2,4-thiadiazol-5-yl]-2-(trifluoromethyl)nicotinamide] | – | – | – | mortality at 500 g/ha (Nezara viridula [1]): ≥ 90%; mortality at 500 g/ha (Tetranychus urticae): ≥ 70%; mortality at 500 g/ha (Nezara viridula [2]): ≥ 90%; mortality at 500 g/ha (Phaedon cochleariae): ≥ 80% |
| O=C(Nc1nc(-c2ccccc2C(F)(F)F)ns1)c1ccccc1Br [Compound I-1-16] | – | 90% | – | – |
| O=C(Nc1nc(-c2cc(F)ccc2C(F)(F)F)ns1)c1cccnc1C(F)(F)F [Compound I-1-64] | – | – | 100% | – |
| O=C(Nc1nc(-c2ccccc2OC(F)(F)F)ns1)c1ccccc1C(F)(F)F [Compound I-1-70, N-{3-[2-(trifluoromethoxy)phenyl]-1,2,4-thiadiazol-5-yl}-2-(trifluoromethyl)benzamide] | – | – | 100% | mortality at 500 g/ha (Phaedon cochleariae): ≥ 80% |
| N#Cc1ccccc1-c1nsc(NC(=O)c2cccnc2C(F)(F)F)n1 [Compound I-1-67, N-[3-(2-Cyanophenyl)-1,2,4-thiadiazol-5-yl]-2-(trifluoromethyl)nicotinamide] | – | – | – | mortality at 500 g/ha (Nezara viridula [1]): ≥ 90% |
| O=C(Nc1nc(-c2c(F)cccc2F)ns1)c1cccnc1CC(F)(F)F [Compound I-1-38] | – | – | 80% | – |
| O=C(Nc1nc(-c2ccccc2F)ns1)c1ccccc1C(F)(F)F [Compound I-1-73] | – | – | 100% | – |
| O=C(Nc1nc(-c2cccc(F)c2C(F)(F)F)ns1)c1cccnc1C(F)(F)F [Compound I-1-61] | – | – | 80% | – |
| O=C(Nc1nc(-c2ccccc2Cl)ns1)c1nccnc1C(F)(F)F [Compound I-1-44] | 100% | – | 100% | – |
| O=C(Nc1nc(-c2c(F)cccc2F)ns1)c1ccccc1C(F)(F)F [Compound I-1-4] | 100% | 90% | – | efficacy (fleas dead or moribund) (Ctenocephalides felis): 100% |
| O=C(Nc1nc(-c2ccccc2C(F)(F)F)ns1)c1ncccc1C(F)(F)F [Compound I-1-19] | – | 90% | 100% | – |

Source: patent US10271552B2, “Heterocyclic compounds as pesticides” (Bayer CropScience Aktiengesellschaft, priority 2015, dated 2019)
